# Reference: patent US20160029683A1, “LOW CALORIE INFANT FORMULA CONTAINING BETA-HYDROXY-BETA-METHYLBUTYRIC ACID” (ABBOTT LABORATORIES, priority 2013, published 2016)
# “Also recorded” adds a separate entry of the source.
# Tests used:
# [1] = Blood plasma concentration of HMB in piglets infused with HMB; assay type: in vivo, neonatal pigs; conditions: pig, intravenous
# Description: (§1) Overnight fasted neonatal pigs (5-7 days old) were infused with HMB with 0, 20, 100, or 400 μmol·kg^−1·hr^−1 HMB. Blood plasma concentrations of the following circulating substrates were measured. HMB was measured using gas chromatography per the method set forth in: Nissen, Steven (1990). Analysis of β-Hydroxy-β-methyl Butyrate in Plasma by Gas […] Chromatography and Mass Spectrometry Analytical Biochemistry 188, 17-19.
# [2] = system: protein synthesis in skeletal muscles; experiment: Fractional rate of protein synthesis in skeletal muscles of HMB-infused piglets; assay type: in vivo, neonatal pigs
# Description: as §1
# (§2) At the end of the infusion, the piglets were sacrificed and the fractional protein synthesis rates were measured by measuring ^3H incorporation into protein fractions after a flooding dose of L[4-^3H]phenylalanine using the method set forth in Garlick P. J. (1980). A rapid and convenient technique for measuring the rate of protein synthesis in tissues by injection of [3H]Phenylalanine Biochem J 192:719-723. Activation of translation initiation was measured in the stomach, duodenum, jejunum, colon, pancreas, kidney, brain and skin. The abundance of intracellular proteins involved in signaling of protein synthesis and in processes related to protein degradation was measured in tissue homogenates by immunoblotting using commercially available antibodies.
# [3] = system: protein synthesis in the lung; experiment: Fractional rate of protein synthesis in the lung of HMB-infused piglets; assay type: in vivo, neonatal pigs; conditions: infusion rate of 20 μmol·kg^−1·hour^−1 HMB for one hour
# Description: as §1, §2
# [4] = system: protein synthesis in the spleen; experiment: Fractional rate of protein synthesis in the spleen of HMB-infused piglets; assay type: in vivo, neonatal pigs; conditions: infusion rate of 20 μmol·kg^−1·hour^−1 HMB for one hour
# Description: as §1, §2
# [5] = system: protein synthesis in longissimus dorsi, gastrocnemius, soleus, diaphragm, duodenum and brain; experiment: Comparison of protein synthesis rates after infusion of HMB or leucine; assay type: in vivo, neonatal pigs; conditions: HMB 20, 100 or 400 μmol kg^−1 h^−1 vs leucine 400 μmol·kg^−1·hour^−1
# Description: as §1, §2
# S6K1 = experiment: Phosphorylation of S6K1 in muscles (immunoblotting); assay type: in vivo, neonatal pigs
# Description: as §1, §2
# The phosphorylation of S6K1 is an indicator of mTORC1 signaling to translation.
# 4EBP1 = experiment: Phosphorylation of 4EBP1 in muscles (immunoblotting); assay type: in vivo, neonatal pigs
# Description: as §1, §2
# The phosphorylation of 4EBP1 is an indicator of mTORC1 signaling to translation.
# elF4E·elF4G complex = experiment: Formation of the active elF4E·elF4G complex in muscles; assay type: in vivo, neonatal pigs
# elF2α = experiment: Phosphorylation of elF2α in muscles; assay type: in vivo, neonatal pigs
# Description: as §1, §2
# The formation of phosphorylation of elF2α regulates tRNA-ribosome binding.
# eEF2 = experiment: Phosphorylation of eEF2 in muscles; assay type: in vivo, neonatal pigs
# Description: as §1, §2
# The formation of phosphorylation of eEF2 regulates […].
# Atrogin-1 = experiment: Expression of Atrogin-1 in muscles; assay type: in vivo, neonatal pigs
# Description: as §1, §2
# Atrogin-1 is a muscle-specific ubiquitin ligase.
# MURF1 = experiment: Expression of MURF1 in muscles; assay type: in vivo, neonatal pigs
# Description: as §1, §2
# MURF1 is a muscle-specific ubiquitin ligase.
# LC3-II/LC3-I = experiment: Ratio of LC3-II/LC3-I in muscles; assay type: in vivo, neonatal pigs
# Description: as §1, §2
# The ratio of LC3-II/LC3-I is an indicator of autophagy/lysosomal protein degradation.
# mTORC1 = mTORC1 signaling to translation (overall analysis); assay type: in vivo, neonatal pigs; conditions: overall analysis of the piglet data
# Description: as §1, §2
# [6] = system: markers of protein degradation; experiment: Markers of protein degradation (overall analysis); assay type: in vivo, neonatal pigs; conditions: overall analysis of the piglet data
# Description: as §1, §2
# amino acid transporters = experiment: Level of amino acid transporters; assay type: in vivo, neonatal pigs; conditions: overall analysis of the piglet data
# Description: as §2
# [7] = system: protein degradation in the muscles of adults; conditions: literature (Smith 2004, 2005); cited from earlier work
# [8] = 20 μmol·kg^−1·hour^−1 HMB for one hour, diaphragm
# [9] = 20 μmol·kg^−1·hour^−1 HMB for one hour, longissimus dorsi, gastrocnemius and soleus
# [10] = 100 μmol·kg^−1·hour^−1 HMB for one hour, longissimus dorsi, gastrocnemius and soleus
# [11] = 100 μmol·kg^−1·hour^−1 HMB for one hour, diaphragm
# [12] = 20 μmol·kg^−1·hour^−1 HMB for one hour
# [13] = 100 μmol·kg^−1·hour^−1 HMB for one hour
smiles,measurement,setting,value
"CC(C)(O)CC(=O)O [HMB, beta-hydroxy-beta-methylbutyric acid]",concentration at 1 h,[1]; piglets infused with 20 μmol·kg^−1·hr^−1 HMB,90 µM
same,concentration at 1 h,[1]; piglets infused with 100 μmol·kg^−1·hr^−1 HMB,316 µM
same,concentration at 1 h,[1]; piglets infused with 400 μmol·kg^−1·hr^−1 HMB,1400 µM
same,fractional rates of protein synthesis in the skeletal muscles,"[2]; 20 μmol·kg^−1·hour^−1 HMB, longissimus dorsi, gastrocnemius, soleus and diaphragm, P<0.05",increased
same,"protein synthesis in the gastrocnemius, soleus and diaphragm muscles",[2]; 100 μmol·kg^−1·hour^−1 HMB,not significantly
same,protein synthesis in the longissimus dorsi muscle,"[2]; 100 μmol·kg^−1·hour^−1 HMB, P<0.05",increased
same,protein synthesis in the skeletal muscles,[2]; 400 μmol·kg^−1·hour^−1 HMB,no significant effect
same,"impact on protein synthesis in 4 muscles (fast twitch, slow twitch, voluntary and involuntary)","[2]; highest dose, 400 μmol kg^−1 h^−1, compared with other doses",least impact
same,"impact on protein synthesis in 4 muscles (fast twitch, slow twitch, voluntary and involuntary)","[2]; lowest dose of HMB 20 μmol kg^−1 h^−1, compared with other doses",greatest impact
same,protein synthesis in the lung,[3],increase
same,protein synthesis in the spleen,[4],increase
same,effectiveness in increasing protein synthesis compared with leucine,[5],equal to or more effective; also recorded: as effective as leucine
same,phosphorylation of S6K1,S6K1; [8],increased
same,phosphorylation of S6K1,S6K1; [9],increased
same,phosphorylation of S6K1,S6K1; [10],increased
same,phosphorylation of 4EBP1,4EBP1; [8],increased
same,phosphorylation of 4EBP1,4EBP1; [9],increased
same,phosphorylation of 4EBP1,4EBP1; [11],not
same,phosphorylation of 4EBP1,4EBP1; [10],increased
same,formation of active eIF4E·eIF4G complex,elF4E·elF4G complex; [8],increased
same,formation of active eIF4E·eIF4G complex,elF4E·elF4G complex; [9],increased
same,formation of active eIF4E·eIF4G complex,elF4E·elF4G complex; [11],not
same,formation of active eIF4E·eIF4G complex,elF4E·elF4G complex; [10],increased
same,phosphorylation of elF2α,elF2α; [12],did not affect
same,phosphorylation of elF2α,elF2α; [13],did not affect
same,phosphorylation of eEF2,eEF2; [12],did not affect
same,phosphorylation of eEF2,eEF2; [13],did not affect
same,expression of Atrogin-1,Atrogin-1; [12],did not affect
same,expression of Atrogin-1,Atrogin-1; [13],did not affect
same,expression of MURF1,MURF1; [12],did not affect
same,expression of MURF1,MURF1; [13],did not affect
same,ratio of LC3-II/LC3-I,LC3-II/LC3-I; [12],did not affect
same,ratio of LC3-II/LC3-I,LC3-II/LC3-I; [13],did not affect
same,activation of protein synthesis via mTORC1,mTORC1,activated protein synthesis by inducing mTORC1
same,markers of protein degradation,[6],did not affect
same,level of amino acid transporters,amino acid transporters,did not affect
same,protein degradation in the muscles of adults,[7],attenuates protein degradation
